Measurements as given in ChEMBL document CHEMBL5465560, “Selectivity Literature for EUbOPEN Chemogenomic Library” (2024).

Tests used:
[1] = target: Serine/threonine-protein kinase N1 (Homo sapiens, UniProt Q16512); settings: at 10 µM
[2] = target: T1, MAP kinase-activated protein kinase 5 (Homo sapiens) (UniProt Q8IW41); assay: Selectivity interaction (Upstate Kinase Profiler service (Millipore)) EUB0000056c MAPKAPK5; settings: at 1 µM
T1 sequence (whole entry): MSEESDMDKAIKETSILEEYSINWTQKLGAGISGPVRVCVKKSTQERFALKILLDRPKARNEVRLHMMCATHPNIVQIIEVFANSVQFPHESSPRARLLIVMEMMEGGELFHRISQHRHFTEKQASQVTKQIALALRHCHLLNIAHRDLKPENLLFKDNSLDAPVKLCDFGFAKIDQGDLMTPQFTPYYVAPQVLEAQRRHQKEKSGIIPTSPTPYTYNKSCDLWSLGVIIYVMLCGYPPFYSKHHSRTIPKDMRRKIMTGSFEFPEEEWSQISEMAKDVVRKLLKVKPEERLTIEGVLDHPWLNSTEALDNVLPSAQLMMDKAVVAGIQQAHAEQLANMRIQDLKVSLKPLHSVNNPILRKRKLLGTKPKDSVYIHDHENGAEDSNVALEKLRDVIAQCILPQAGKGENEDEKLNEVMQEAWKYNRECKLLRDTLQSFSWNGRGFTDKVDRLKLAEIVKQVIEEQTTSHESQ

[3] = target: STE20/SPS1-related proline-alanine-rich protein kinase (Homo sapiens) (UniProt Q9UEW8); assay: Selectivity interaction (KinomeScan (DiscoverX)) EUB0000655a STK39; settings: at 10 µM
[4] = target: Casein kinase I isoform epsilon (Homo sapiens, UniProt P49674); assay: Selectivity interaction (KinomeScan (DiscoverX)) EUB0000655a CSNK1E; settings: at 10 µM
[5] = target: MAP kinase-interacting serine/threonine-protein kinase 2 (Homo sapiens, UniProt Q9HBH9); assay: Selectivity interaction (ProQinase) EUB0000171b MKNK2
Sequence of MAP kinase-interacting serine/threonine-protein kinase 2 (Q9HBH9 whole entry, looked up): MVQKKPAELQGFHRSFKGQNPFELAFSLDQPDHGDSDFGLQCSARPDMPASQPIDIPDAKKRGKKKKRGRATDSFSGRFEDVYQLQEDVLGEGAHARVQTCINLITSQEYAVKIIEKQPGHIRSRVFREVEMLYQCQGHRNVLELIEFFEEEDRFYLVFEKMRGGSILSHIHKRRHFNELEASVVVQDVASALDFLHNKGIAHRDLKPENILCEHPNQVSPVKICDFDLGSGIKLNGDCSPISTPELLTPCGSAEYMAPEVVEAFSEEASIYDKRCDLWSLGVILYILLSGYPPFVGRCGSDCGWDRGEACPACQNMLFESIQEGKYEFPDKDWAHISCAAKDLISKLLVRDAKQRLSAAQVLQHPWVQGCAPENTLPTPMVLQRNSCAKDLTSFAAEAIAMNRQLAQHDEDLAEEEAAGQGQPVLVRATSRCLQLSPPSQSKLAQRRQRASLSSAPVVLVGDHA

[6] = target: Myosin light chain kinase, smooth muscle (Homo sapiens, UniProt Q15746); assay: Selectivity interaction (ProQinase) EUB0000171b MYLK
Sequence of Myosin light chain kinase, smooth muscle (Q15746 whole entry, the tested form may be a part): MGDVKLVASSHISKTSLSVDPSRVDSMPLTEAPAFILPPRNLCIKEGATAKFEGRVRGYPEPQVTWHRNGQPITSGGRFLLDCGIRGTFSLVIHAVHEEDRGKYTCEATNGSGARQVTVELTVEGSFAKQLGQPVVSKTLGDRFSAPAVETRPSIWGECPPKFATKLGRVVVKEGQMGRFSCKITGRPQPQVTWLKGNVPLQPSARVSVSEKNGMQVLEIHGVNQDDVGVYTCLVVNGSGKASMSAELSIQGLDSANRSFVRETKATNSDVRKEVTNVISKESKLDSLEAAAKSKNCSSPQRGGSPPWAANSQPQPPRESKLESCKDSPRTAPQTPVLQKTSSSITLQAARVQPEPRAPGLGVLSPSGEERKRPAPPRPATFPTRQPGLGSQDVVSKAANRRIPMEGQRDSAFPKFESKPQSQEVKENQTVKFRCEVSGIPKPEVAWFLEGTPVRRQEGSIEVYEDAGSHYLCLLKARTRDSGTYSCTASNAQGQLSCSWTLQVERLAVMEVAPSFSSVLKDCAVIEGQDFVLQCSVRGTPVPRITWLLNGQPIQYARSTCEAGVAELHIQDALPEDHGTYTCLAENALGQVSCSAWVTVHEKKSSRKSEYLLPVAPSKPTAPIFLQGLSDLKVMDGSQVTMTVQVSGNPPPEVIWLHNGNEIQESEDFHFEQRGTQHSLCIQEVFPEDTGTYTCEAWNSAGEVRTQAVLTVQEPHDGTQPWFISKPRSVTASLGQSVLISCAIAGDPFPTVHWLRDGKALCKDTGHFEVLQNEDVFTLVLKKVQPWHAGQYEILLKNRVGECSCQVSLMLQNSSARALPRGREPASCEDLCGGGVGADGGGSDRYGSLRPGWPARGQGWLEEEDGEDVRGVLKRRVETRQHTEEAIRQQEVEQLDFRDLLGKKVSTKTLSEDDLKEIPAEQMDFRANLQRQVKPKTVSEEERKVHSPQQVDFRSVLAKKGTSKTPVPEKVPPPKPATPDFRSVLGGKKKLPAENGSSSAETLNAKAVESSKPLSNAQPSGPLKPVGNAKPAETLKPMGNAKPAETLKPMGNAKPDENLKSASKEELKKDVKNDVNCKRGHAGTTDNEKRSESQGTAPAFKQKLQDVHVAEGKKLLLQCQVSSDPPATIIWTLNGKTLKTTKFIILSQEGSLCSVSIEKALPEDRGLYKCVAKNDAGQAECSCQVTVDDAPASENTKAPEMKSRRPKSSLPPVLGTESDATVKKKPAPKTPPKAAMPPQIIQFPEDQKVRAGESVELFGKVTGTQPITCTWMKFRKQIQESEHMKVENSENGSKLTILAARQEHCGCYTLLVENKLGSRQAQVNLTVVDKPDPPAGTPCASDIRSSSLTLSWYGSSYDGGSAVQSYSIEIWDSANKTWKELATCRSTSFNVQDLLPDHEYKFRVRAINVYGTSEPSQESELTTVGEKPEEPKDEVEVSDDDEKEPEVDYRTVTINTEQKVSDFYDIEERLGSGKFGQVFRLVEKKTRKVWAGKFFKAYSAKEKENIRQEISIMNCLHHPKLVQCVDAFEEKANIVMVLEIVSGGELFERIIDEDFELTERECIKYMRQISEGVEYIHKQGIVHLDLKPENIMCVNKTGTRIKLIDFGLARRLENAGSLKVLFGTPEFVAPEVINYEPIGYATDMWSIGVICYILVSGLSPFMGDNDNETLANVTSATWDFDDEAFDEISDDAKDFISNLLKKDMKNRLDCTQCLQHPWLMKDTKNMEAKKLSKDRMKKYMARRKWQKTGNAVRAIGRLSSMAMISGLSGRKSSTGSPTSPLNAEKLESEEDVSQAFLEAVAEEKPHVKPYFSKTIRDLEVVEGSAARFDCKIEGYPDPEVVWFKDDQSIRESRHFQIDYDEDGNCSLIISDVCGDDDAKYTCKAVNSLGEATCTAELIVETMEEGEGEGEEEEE

[7] = target: Phosphatidylinositol 4-phosphate 3-kinase C2 domain-containing subunit beta (Homo sapiens) (UniProt O00750); assay: Selectivity interaction (Kinase panel (KiNativ target engagement assay in Jurkat cells)) EUB0001635a PIK3C2B; type: cell-based; settings: Selectivity number of off-targets 0.0, Selectivity number of targets 233.0, Source Knowledge https://www.sciencedirect.com/science/article/pii/S2451945619300674?via%3Dihub, at 1 µM
[8] = target: Myosin light chain kinase 2, skeletal/cardiac muscle (Homo sapiens) (UniProt Q9H1R3); assay: Selectivity interaction (KinomeScan (DiscoverX)) EUB0000666a MYLK2; settings: at 10 µM
[9] = target: Serine/threonine-protein kinase SIK2 (Homo sapiens) (UniProt Q9H0K1); assay: Selectivity interaction (KinomeScan (DiscoverX)) EUB0000666a SIK2; settings: at 10 µM
[10] = target: T2, Discoidin domain-containing receptor 2 (Homo sapiens) (UniProt Q16832); assay: Selectivity interaction (KinomeScan (DiscoverX)) EUB0000666a DDR2; settings: at 10 µM
T2 sequence (whole entry): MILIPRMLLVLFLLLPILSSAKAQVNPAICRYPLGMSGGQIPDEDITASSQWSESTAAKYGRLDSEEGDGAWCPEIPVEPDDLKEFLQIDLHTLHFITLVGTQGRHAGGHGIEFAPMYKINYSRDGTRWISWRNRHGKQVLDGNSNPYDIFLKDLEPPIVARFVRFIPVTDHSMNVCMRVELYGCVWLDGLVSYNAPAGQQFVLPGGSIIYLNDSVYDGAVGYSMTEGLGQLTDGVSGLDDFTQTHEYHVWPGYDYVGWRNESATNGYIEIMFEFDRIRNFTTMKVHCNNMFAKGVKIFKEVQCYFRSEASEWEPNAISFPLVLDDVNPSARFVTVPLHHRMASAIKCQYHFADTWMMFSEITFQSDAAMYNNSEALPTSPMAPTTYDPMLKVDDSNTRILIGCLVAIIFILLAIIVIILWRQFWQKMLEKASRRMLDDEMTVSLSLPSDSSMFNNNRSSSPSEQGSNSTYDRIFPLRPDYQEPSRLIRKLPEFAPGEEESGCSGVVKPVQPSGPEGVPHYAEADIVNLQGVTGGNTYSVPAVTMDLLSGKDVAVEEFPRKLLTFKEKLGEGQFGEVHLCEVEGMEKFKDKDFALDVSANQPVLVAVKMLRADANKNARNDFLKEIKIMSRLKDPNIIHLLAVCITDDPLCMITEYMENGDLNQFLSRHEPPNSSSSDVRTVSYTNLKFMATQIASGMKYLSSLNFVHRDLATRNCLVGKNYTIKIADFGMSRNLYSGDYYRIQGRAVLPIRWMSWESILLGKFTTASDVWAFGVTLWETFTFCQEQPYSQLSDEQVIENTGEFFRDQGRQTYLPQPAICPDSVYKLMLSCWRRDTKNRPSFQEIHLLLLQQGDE

[11] = tested on: ALK tyrosine kinase receptor (Homo sapiens), Q9UM73 [R1275Q]; assay: (§1) Selectivity interaction (LanthaScreen Eu Kinase Binding Assay) EUB0001632a ALK; settings: at 10 µM
Sequence of ALK tyrosine kinase receptor (Homo sapiens), Q9UM73 [R1275Q] (Q9UM73 whole entry R1275Q): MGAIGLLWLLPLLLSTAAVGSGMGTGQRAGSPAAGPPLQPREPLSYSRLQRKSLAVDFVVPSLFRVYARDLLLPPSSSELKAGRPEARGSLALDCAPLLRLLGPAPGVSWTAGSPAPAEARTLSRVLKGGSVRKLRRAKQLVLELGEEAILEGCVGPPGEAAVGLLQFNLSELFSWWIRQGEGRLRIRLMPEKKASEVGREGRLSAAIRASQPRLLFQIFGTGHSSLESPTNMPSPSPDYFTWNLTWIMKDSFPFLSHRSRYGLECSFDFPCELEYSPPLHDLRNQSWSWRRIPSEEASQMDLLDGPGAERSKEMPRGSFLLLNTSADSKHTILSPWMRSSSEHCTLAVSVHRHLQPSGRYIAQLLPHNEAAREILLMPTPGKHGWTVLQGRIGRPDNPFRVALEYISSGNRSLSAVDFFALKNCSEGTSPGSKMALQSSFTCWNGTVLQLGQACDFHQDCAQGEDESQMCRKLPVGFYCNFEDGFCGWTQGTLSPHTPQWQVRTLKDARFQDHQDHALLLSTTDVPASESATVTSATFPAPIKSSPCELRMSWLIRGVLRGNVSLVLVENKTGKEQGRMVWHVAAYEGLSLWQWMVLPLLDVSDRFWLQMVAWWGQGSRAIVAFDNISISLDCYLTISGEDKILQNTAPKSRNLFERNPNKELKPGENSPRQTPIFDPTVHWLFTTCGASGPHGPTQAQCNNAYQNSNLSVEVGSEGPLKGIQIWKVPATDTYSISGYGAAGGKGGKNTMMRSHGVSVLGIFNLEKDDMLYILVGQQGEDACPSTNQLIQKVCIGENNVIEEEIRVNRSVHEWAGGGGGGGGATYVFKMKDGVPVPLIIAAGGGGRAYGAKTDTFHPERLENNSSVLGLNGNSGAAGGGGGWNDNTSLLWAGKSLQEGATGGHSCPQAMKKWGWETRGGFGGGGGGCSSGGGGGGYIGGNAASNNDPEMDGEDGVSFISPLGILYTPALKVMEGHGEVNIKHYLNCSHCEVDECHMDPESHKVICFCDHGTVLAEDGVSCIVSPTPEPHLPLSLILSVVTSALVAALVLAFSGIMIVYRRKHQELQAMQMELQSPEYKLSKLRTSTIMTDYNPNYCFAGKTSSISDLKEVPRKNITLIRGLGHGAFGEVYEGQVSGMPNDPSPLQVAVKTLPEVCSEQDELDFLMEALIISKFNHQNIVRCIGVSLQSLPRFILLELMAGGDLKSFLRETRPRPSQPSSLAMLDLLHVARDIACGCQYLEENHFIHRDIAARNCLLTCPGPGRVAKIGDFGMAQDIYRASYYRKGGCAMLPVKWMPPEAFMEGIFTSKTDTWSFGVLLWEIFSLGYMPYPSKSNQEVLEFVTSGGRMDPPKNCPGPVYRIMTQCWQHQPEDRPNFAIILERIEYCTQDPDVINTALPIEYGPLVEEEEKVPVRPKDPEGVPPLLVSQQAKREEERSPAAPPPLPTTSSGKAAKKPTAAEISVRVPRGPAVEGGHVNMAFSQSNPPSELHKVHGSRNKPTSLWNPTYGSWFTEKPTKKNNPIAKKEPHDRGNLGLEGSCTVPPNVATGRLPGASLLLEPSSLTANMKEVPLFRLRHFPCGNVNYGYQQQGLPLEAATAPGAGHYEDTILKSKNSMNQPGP

[12] = tested on: ALK tyrosine kinase receptor (Homo sapiens), Q9UM73 [C1156Y]; assay: as §1; settings: at 10 µM
Sequence of ALK tyrosine kinase receptor (Homo sapiens), Q9UM73 [C1156Y] (Q9UM73 whole entry C1156Y, looked up): as the sequence (Q9UM73 whole entry R1275Q) above, with C1156Y, Q1275R counted along it

[13] = tested on: ALK tyrosine kinase receptor (Homo sapiens), Q9UM73 [F1174L]; assay: as §1; settings: at 10 µM
Sequence of ALK tyrosine kinase receptor (Homo sapiens), Q9UM73 [F1174L] (Q9UM73 whole entry F1174L): as the sequence (Q9UM73 whole entry R1275Q) above, with F1174L, Q1275R counted along it

[14] = tested on: ALK tyrosine kinase receptor (Homo sapiens), Q9UM73 [L1196M]; assay: as §1; settings: at 10 µM
Sequence of ALK tyrosine kinase receptor (Homo sapiens), Q9UM73 [L1196M] (Q9UM73 whole entry L1196M, looked up, the tested form may be a part): as the sequence (Q9UM73 whole entry R1275Q) above, with L1196M, Q1275R counted along it

[15] = target: LIM domain kinase 1 (Homo sapiens) (UniProt P53667); assay: Selectivity interaction (Kinase panel (Invitrogen)) EUB0000639a LIMK1; settings: at 200 nM
[16] = target: Serine/threonine-protein kinase MARK1 (Homo sapiens) (UniProt Q9P0L2); assay: Selectivity interaction (ActivX KiNativ screen (kinase selectivity in THP-1 cell lysates)) EUB0000639a MARK1; type: subcellular; settings: lysate
Sequence of Serine/threonine-protein kinase MARK1 (Homo sapiens) (Q9P0L2 whole entry, looked up): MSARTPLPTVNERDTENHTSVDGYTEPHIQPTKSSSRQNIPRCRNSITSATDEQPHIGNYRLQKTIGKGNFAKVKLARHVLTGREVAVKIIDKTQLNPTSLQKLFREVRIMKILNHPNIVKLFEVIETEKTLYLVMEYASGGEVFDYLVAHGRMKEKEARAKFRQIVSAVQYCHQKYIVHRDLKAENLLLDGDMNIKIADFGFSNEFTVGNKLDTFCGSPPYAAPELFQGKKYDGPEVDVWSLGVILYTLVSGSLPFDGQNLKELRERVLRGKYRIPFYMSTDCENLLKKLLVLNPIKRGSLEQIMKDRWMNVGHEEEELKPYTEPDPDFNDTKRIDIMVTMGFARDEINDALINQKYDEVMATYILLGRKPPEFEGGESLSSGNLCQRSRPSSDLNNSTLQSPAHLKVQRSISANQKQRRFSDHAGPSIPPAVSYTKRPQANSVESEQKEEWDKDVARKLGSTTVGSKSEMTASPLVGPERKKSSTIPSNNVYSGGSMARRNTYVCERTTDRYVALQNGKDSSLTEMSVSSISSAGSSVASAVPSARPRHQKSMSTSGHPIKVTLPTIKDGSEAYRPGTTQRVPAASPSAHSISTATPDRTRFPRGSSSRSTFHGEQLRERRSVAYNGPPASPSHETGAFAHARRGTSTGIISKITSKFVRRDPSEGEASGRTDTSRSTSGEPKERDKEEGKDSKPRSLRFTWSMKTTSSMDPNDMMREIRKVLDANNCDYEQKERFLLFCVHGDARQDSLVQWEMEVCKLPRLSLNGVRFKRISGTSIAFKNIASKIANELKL

[17] = target: MAP/microtubule affinity-regulating kinase 3 (Homo sapiens) (UniProt P27448); assay: Selectivity interaction (ActivX KiNativ screen (kinase selectivity in THP-1 cell lysates)) EUB0000639a MARK3; type: subcellular; settings: lysate, at 0.2 µM
[18] = target: Serine/threonine-protein kinase Nek7 (Homo sapiens) (UniProt Q8TDX7); assay: Selectivity interaction (SelectScreen profiling (Invitrogen)) EUB0000607a NEK7; settings: at 2 µM
[19] = target: Ribosomal protein S6 kinase alpha-1 (Homo sapiens, UniProt Q15418); assay: Selectivity interaction (ActivX KiNativ screen (ex vivo kinase selectivity in human PBMCs)) EUB0001619a RPS6KA1; type: cell-based; settings: PBMC, at 1 µM

CCN(CC)CCCCNc1ncc2cc(-c3cc(OC)cc(OC)c3)c(NC(=O)NC(C)(C)C)nc2n1
% of control [1]: 100%

Cc1ccc(-c2ccc3c(ccc4sc5c(c43)NC[C@@H](C)NC5=O)n2)cn1
% of inhibition [2]: 99%

CN(C)CCOc1ccc(-c2nc(-c3ccncc3)c(-c3ccc4c(c3)CC/C4=N\O)[nH]2)cc1
% of control [3]: 100%
% of control [4]: 14%

C=CC(=O)Nc1cccc(C(=O)Nc2ccc(Nc3cc(-c4[nH]c(SC)nc4C)ccn3)cc2)c1
% of control ([5]; at 1 µM): 80%
% of control ([5]; at 5 µM): 31%
% of control ([6]; at 1 µM): 84%
% of control ([6]; at 5 µM): 60%

C=CC(=O)Nc1ccc(C(=O)Nc2[nH]nc3c2CN(C(=O)N[C@H](CN(C)C)c2ccccc2)C3(C)C)cc1
% of engagement [7]: -18.6%

O=C(NOC[C@H](O)CO)c1ccc(F)c(F)c1Nc1ccc(I)cc1F
% of control [8]: 100%
% of control [9]: 92%
% of control [10]: 100%

Cn1cc(-n2cnc3c(NCc4nc5cc(Cl)c(Cl)cc5[nH]4)nc(N4CCOCC4)nc32)cn1
% of inhibition [11]: -41.1%
% of inhibition [12]: -8.74%
% of inhibition [13]: -19.4%
% of inhibition [14]: -25.5%

CC[C@@H]1[C@H](F)C(=O)N[C@@H]1COc1nccc2cc(C(N)=O)c(OC)cc12 [ZIMLOVISERTIB]
% of inhibition [15]: 13.2%
% of inhibition ([16]; at 0.01 µM): -5.4%
% of inhibition ([16]; at 0.04 µM): 8.3%
% of inhibition ([16]; at 0.2 µM): 8.4%
% of inhibition ([16]; at 1 µM): 26.6%
% of inhibition ([16]; at 5 µM): 51.5%
% of inhibition [17]: 2.7%

CNC(=O)Nc1ccc(-c2nc(N3CC4CCC(C3)O4)c3cnn(C4CCC5(CC4)OCCO5)c3n2)cc1
% of inhibition [18]: -3%

N#Cc1cccc(-c2c[nH]c3ncnc(N4CCOCC4)c23)c1
% of inhibition [19]: 56%
